In PubChem BioAssay (NCI):
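96-well plates; 48 h exposure; 5 concentrations. Endpoints by linear interpolation between flanking doses. Not reached: highest tested concentration assigned. GI50 marks 50% less growth. TGI is the concentration that stops growth completely.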

How the values were obtained:
Assay in all cases: DTP human tumour cell line panel, 48 h
LOX IMVI melanoma = tested on: LOX IMVI melanoma
MOLT-4 leukemia = tested on: MOLT-4 leukemia
EKVX NSCLC = tested on: EKVX NSCLC
SF-268 CNS = tested on: SF-268 CNS
786-0 renal = tested on: 786-0 renal
SNB-75 CNS = tested on: SNB-75 CNS
U251 CNS = tested on: U251 CNS
HCC-2998 colon = tested on: HCC-2998 colon
RPMI-8226 leukemia = tested on: RPMI-8226 leukemia
PC-3 prostate = tested on: PC-3 prostate
UACC-62 melanoma = tested on: UACC-62 melanoma
UO-31 renal = tested on: UO-31 renal
HT29 colon = tested on: HT29 colon
RXF 393 renal = tested on: RXF 393 renal
SN12C renal = tested on: SN12C renal
UACC-257 melanoma = tested on: UACC-257 melanoma
MDA-MB-435 = tested on: MDA-MB-435
K-562 leukemia = tested on: K-562 leukemia
ACHN renal = tested on: ACHN renal
MALME-3M melanoma = tested on: MALME-3M melanoma
KM12 colon = tested on: KM12 colon
DU-145 prostate = tested on: DU-145 prostate
NCI-H226 lung = tested on: NCI-H226 lung
SK-OV-3 ovarian = tested on: SK-OV-3 ovarian
OVCAR-5 ovarian = tested on: OVCAR-5 ovarian
COLO 205 colon = tested on: COLO 205 colon
A549 NSCLC = tested on: A549 NSCLC
NCI/ADR-RES ovarian = tested on: NCI/ADR-RES ovarian

Compound CCCC(CCC)C(=O)OCC1(CO)C/C(=C\c2ccc(C(F)(F)F)cc2)C(=O)O1 (stereo unspecified) has a GI50 (LOX IMVI melanoma) of 10 µM, a TGI (LOX IMVI melanoma) of 22.8 µM and a GI50 (MOLT-4 leukemia) of 14.3 µM. The TGI (MOLT-4 leukemia) was 31.9 µM, the GI50 (EKVX NSCLC) was 11 µM and the TGI (EKVX NSCLC) was 27.2 µM. The GI50 (SF-268 CNS) was 16.2 µM, the TGI (SF-268 CNS) was 33.3 µM and the GI50 (786-0 renal) was 10.1 µM. It also gave a TGI (786-0 renal) of 22.5 µM, a GI50 (SNB-75 CNS) of 12.1 µM and a TGI (SNB-75 CNS) of 26.8 µM. It also gave a GI50 (U251 CNS) of 7.61 µM, a TGI (U251 CNS) of 22.5 µM and a GI50 (HCC-2998 colon) of 10.9 µM. The TGI (HCC-2998 colon) was 24 µM, the GI50 (RPMI-8226 leukemia) was 10.7 µM and the TGI (RPMI-8226 leukemia) was 26.9 µM. The GI50 (PC-3 prostate) was 12.3 µM, the TGI (PC-3 prostate) was 25.4 µM and the GI50 (UACC-62 melanoma) was 11 µM. The TGI (UACC-62 melanoma) was 27.1 µM, the GI50 (UO-31 renal) was 12.2 µM and the TGI (UO-31 renal) was 26.5 µM. It also gave a GI50 (HT29 colon) of 14.4 µM, a TGI (HT29 colon) of 30.6 µM and a GI50 (RXF 393 renal) of 16.6 µM. The TGI (RXF 393 renal) was 37.8 µM, the GI50 (SN12C renal) was 11.9 µM and the TGI (SN12C renal) was 25.7 µM. The GI50 (UACC-257 melanoma) was 18.1 µM, the TGI (UACC-257 melanoma) was 33.4 µM and the GI50 (MDA-MB-435) was 304 nM. For the same compound, the TGI (MDA-MB-435) was 19.3 µM, the GI50 (K-562 leukemia) was 823 nM and the TGI (K-562 leukemia) was 20.6 µM. The GI50 (ACHN renal) was 10.5 µM, the TGI (ACHN renal) was 22.6 µM and the GI50 (MALME-3M melanoma) was 16.4 µM. For the same compound, the TGI (MALME-3M melanoma) was 31.7 µM, the GI50 (KM12 colon) was 13.7 µM and the TGI (KM12 colon) was 28.6 µM. It also gave a GI50 (DU-145 prostate) of 13.4 µM, a TGI (DU-145 prostate) of 27.8 µM and a GI50 (NCI-H226 lung) of 14.1 µM. The TGI (NCI-H226 lung) was 33.1 µM, the GI50 (SK-OV-3 ovarian) was 19.7 µM and the TGI (SK-OV-3 ovarian) was 34 µM. The GI50 (OVCAR-5 ovarian) was 17.1 µM, the TGI (OVCAR-5 ovarian) was 31.7 µM and the GI50 (COLO 205 colon) was 577 nM. It also gave a TGI (COLO 205 colon) of 9.37 µM, a GI50 (A549 NSCLC) of 5.69 µM and a TGI (A549 NSCLC) of 26.3 µM. For the same compound, the GI50 (NCI/ADR-RES ovarian) was 15.3 µM and the TGI (NCI/ADR-RES ovarian) was 32 µM.
